Key:
Format in all cases: biochemical
Settings in all cases: 3 μM; percent of control kinase activity
[1] = target: Blk(m) (Mus musculus, UniProt P16277); assay: Blk(m) kinase assay
Experimental: (§1) Six compounds (presumptive single agents) were tested against a panel of 50 kinases. The results are presented in Table 2; numbers for each kinase indicate the percent of control kinase activity in the presence of a 3μM concentration of the indicated agent.
(§2) Agents that target two or more different kinases are useful in the methods of the invention as described elsewhere herein. Such compounds may be identified, and their effect on certain kinases may be identified, using the assays briefly described below in Examples 4-83. Each of these assays was carried out as described in Davies et al., Biochem. J., 351:95-105 (2000). All assays were carried out at 10 μM ATP unless otherwise noted.
(§3) In a final reaction volume of 25 μl, Blk (m) (5-10 mU) is incubated with 50 mM Tris pH 7.5, 0.1 mM EGTA, 0.1 mM NaVanadate, 0.1% β-mercaptoethanol, 0.1 mg/ml poly(Glu, Tyr) 4:1, 10 mM MgAcetate and [γ-^33P-ATP] (specific activity approx. 500 cpm/pmol, concentration as required). The reaction is initiated by the addition of Mg^2+ [γ-^33P-ATP]. After incubation for 40 minutes at room temperature, the reaction is stopped by the addition of 5 μl of a 3% phosphoric acid solution. 10 μl of the reaction is then spotted onto a Filtermat A and washed three times for 5 minutes in 75 mM phosphoric acid and once in methanol prior to drying and scintillation counting.

[2] = target: Fes(h) (Homo sapiens, UniProt P07332); assay: Fes(h) kinase assay
Chain of Fes(h) (P07332 whole entry): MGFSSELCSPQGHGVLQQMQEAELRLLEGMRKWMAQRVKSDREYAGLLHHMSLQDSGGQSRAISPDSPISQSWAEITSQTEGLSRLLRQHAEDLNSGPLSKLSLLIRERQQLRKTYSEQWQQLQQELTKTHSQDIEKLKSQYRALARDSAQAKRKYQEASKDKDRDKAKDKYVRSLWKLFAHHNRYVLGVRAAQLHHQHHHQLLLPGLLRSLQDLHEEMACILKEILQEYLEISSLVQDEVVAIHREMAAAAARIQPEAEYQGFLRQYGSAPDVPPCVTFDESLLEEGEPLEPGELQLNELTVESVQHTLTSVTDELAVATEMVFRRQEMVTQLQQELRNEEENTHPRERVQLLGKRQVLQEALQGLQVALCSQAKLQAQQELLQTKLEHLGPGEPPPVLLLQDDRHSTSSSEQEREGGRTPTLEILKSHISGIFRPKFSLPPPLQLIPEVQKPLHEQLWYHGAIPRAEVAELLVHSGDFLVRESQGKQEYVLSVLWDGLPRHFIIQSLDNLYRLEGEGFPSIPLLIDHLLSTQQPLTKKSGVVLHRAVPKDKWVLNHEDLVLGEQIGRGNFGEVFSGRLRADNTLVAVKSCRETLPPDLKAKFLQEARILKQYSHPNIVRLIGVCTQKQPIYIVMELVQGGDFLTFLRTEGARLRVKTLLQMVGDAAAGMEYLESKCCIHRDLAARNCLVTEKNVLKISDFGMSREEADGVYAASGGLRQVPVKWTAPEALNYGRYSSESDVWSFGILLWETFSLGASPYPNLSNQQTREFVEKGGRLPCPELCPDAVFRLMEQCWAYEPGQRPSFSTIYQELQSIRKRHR
Experimental: as §1, §2
as §3, with “μl, Fes(h)” for “μl, Blk (m)”, “with 8” for “with 50”, “mM MOPS” for “mM Tris”, “pH 7.0, 0.2” for “pH 7.5, 0.1”, “mM EDTA,” for “mM EGTA, 0.1 mM NaVanadate, 0.1% β-mercaptoethanol,”

[3] = target: PAK2(h) (Homo sapiens, UniProt Q13177); assay: PAK2(h) kinase assay
Chain of PAK2(h) (Q13177 whole entry): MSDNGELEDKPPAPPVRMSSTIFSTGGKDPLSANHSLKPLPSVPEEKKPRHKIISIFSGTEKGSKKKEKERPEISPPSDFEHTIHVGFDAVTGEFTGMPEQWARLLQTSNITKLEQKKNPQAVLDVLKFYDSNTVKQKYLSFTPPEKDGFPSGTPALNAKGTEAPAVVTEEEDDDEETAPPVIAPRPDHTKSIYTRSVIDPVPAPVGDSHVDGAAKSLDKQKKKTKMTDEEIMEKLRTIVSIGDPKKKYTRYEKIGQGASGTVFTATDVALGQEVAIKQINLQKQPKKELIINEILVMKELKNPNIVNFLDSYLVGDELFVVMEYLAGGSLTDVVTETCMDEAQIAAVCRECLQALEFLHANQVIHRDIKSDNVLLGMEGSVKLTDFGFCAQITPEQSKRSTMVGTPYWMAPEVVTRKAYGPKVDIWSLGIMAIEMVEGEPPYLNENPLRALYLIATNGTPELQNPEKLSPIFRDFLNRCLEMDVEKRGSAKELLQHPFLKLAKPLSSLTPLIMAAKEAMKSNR
Experimental: as §1, §2
as §3, with “μl, PAK2(h)” for “μl, Blk (m)”, “with 8” for “with 50”, “mM MOPS” for “mM Tris”, “pH 7.0, 0.2” for “pH 7.5, 0.1”, “mM EDTA, 30 μM […] (SEQ ID NO:8),” for “mM EGTA, 0.1 mM NaVanadate, 0.1% β-mercaptoethanol, 0.1 mg/ml poly(Glu, Tyr) 4:1,”, “a P30 filtermat” for “a Filtermat A”

[4] = target: T1, PRAK(h) (Homo sapiens, UniProt Q8IW41); assay: PRAK(h) kinase assay
T1 sequence (Q8IW41 1-473): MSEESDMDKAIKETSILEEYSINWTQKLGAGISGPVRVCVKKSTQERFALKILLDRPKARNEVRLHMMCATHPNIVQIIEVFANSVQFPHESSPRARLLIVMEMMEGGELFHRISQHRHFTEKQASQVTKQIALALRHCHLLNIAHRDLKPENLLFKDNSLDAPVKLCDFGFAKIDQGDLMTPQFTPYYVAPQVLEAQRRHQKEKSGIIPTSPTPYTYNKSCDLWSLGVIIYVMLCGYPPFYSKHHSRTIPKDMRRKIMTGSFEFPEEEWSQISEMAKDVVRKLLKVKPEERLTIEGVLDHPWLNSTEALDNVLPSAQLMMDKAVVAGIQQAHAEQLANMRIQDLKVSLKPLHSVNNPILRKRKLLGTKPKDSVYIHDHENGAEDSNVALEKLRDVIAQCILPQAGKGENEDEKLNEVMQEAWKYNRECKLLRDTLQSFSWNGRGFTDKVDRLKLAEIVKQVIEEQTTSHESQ
Experimental: as §1, §2
as §3, with “PRAK (h)” for “Blk (m)”, “Na-β-glycerophosphate” for “Tris”, “30 μM […] (SEQ ID NO11),” for “0.1 mM NaVanadate, 0.1% β-mercaptoethanol, 0.1 mg/ml poly(Glu, Tyr) 4:1,”, “P30 filtermat” for “Filtermat A”, “50” for “75”

[5] = target: PRK2(h) (Homo sapiens, UniProt Q16513); assay: PRK2(h) kinase assay
Chain of PRK2(h) (Q16513 whole entry): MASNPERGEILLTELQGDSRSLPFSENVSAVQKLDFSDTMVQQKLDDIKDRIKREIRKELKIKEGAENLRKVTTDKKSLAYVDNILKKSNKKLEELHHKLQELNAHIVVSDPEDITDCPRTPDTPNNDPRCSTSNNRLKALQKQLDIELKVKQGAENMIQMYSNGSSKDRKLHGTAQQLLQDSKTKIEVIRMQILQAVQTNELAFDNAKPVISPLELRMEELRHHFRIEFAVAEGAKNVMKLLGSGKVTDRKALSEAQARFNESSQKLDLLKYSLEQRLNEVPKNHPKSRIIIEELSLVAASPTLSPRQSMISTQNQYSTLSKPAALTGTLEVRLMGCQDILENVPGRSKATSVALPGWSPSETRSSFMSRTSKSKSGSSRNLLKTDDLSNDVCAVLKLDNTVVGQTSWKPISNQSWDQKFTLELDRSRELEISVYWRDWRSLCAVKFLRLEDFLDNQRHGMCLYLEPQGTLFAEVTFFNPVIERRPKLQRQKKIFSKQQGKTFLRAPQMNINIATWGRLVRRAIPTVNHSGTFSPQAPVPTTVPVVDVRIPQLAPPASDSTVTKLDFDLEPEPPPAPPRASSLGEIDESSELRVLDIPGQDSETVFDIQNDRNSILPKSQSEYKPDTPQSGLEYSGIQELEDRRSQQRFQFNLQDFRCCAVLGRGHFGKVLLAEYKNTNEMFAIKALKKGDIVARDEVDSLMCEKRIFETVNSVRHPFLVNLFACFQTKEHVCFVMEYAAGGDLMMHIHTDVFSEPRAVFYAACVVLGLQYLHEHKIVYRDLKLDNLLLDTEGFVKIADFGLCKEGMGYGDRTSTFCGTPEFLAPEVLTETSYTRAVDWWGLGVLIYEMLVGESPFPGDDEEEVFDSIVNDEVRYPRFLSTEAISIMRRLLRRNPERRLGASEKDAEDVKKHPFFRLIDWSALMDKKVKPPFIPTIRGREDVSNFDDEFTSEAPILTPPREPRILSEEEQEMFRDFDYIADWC
Experimental: as §1, §2
as §3, with “PRK2 (h)” for “Blk (m)”, “EGTA,” for “EGTA, 0.1 mM NaVanadate,”, “30 μM […] (SEQ ID NO:12),” for “0.1 mg/ml poly(Glu, Tyr) 4:1,”, “P30 filtermat” for “Filtermat A”

[6] = target: ROCK-II(h) (Homo sapiens, UniProt O75116); assay: ROCK-II(h) kinase assay
Chain of ROCK-II(h) (O75116 whole entry): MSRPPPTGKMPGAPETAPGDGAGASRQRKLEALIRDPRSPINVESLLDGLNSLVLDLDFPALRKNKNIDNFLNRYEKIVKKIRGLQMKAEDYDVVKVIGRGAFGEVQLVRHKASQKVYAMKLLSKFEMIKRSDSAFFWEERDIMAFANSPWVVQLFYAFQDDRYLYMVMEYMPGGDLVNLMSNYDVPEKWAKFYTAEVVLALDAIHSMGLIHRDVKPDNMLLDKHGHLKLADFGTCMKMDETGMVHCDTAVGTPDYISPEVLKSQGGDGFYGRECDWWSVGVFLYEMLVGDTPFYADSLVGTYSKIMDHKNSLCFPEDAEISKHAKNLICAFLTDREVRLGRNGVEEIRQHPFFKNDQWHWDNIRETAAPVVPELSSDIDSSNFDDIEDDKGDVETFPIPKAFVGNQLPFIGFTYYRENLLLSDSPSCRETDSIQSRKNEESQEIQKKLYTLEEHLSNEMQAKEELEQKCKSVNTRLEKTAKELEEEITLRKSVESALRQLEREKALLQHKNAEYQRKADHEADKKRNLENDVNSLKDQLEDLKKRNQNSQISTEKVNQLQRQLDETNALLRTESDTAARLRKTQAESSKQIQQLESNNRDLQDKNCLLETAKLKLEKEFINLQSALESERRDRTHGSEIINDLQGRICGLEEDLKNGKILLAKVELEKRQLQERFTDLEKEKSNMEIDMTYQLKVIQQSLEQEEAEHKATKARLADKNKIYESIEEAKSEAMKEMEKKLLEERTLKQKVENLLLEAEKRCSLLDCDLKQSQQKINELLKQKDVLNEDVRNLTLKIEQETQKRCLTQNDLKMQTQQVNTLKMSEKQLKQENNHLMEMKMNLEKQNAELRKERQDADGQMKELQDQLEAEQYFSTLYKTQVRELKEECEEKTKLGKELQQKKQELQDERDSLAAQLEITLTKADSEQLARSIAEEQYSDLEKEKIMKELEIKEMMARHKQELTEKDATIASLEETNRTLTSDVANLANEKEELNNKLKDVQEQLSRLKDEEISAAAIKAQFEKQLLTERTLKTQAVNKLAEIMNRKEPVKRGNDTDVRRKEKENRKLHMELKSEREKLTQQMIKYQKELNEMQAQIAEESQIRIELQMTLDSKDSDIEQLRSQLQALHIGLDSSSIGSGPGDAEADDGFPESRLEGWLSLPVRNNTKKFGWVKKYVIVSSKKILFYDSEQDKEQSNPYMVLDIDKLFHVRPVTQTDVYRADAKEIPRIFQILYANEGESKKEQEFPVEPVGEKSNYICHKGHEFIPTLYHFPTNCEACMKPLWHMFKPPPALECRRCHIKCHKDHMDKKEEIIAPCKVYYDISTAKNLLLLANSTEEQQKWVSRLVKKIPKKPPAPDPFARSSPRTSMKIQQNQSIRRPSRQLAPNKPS
Experimental: as §1, §2
as §3, with “ROCK-II (h)” for “Blk (m)”, “30 μM […] (SEQ ID NO:8),” for “0.1 mM NaVanadate, 0.1% β-mercaptoethanol, 0.1 mg/ml poly(Glu, Tyr) 4:1,”, “P30 filtermat” for “Filtermat A”

Chain of Blk(m) (P16277 whole entry): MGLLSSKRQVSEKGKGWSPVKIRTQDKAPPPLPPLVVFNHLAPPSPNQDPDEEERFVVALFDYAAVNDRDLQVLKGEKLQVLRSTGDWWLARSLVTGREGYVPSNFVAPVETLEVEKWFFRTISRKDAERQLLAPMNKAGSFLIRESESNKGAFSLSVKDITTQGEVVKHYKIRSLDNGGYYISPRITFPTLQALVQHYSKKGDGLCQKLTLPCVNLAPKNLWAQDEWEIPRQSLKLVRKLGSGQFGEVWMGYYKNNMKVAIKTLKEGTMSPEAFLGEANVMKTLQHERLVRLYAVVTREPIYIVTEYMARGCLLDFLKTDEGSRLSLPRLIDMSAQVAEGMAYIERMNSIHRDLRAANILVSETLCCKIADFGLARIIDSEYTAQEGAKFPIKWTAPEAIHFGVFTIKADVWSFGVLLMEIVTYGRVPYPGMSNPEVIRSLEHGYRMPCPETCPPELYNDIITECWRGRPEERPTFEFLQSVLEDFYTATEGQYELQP

Compound: COc1ccc2cc(-c3n[nH]c4ccc(-c5n[nH]c(CN6CCOCC6)n5)cc34)ccc2c1 [CC001, 3-(6-Methoxynaphthalen-2-yl)-5-(5-Morpholin-4-Ylmethyl-1H-[1,2,4]Triazol-3-yl)-1H-Indazole]
- Inhibitory activity (% of control), Blk(m) [1]: 25 % of control
- Inhibitory activity (% of control), Fes(h) [2]: 34 % of control
- Inhibitory activity (% of control), PAK2(h) [3]: 68 % of control
- Inhibitory activity (% of control), PRAK(h) [4]: 12 % of control
- Inhibitory activity (% of control), PRK2(h) [5]: 9 % of control
- Inhibitory activity (% of control), ROCK-II(h) [6]: 4 % of control

Compound: CC(C)Cc1nc(-c2ccc3[nH]nc(-c4ccc5cc(OCCN6CCCC6)ccc5c4)c3c2)n[nH]1 [CC002, 5-(5-Isobutyl-1H-[1,2,4]Triazol-3-yl)-3-[6-(2-Pyrrolidin-1-yl-Ethoxy)-Naphthalen-2-yl]-1H-Indazole]
- Inhibitory activity (% of control), Blk(m) [1]: 11 % of control
- Inhibitory activity (% of control), Fes(h) [2]: 10 % of control
- Inhibitory activity (% of control), PAK2(h) [3]: 21 % of control
- Inhibitory activity (% of control), PRAK(h) [4]: 6 % of control
- Inhibitory activity (% of control), PRK2(h) [5]: 4 % of control
- Inhibitory activity (% of control), ROCK-II(h) [6]: 2 % of control

Compound: CC(C)(C)Cc1nc(-c2ccc3[nH]nc(-c4ccc5cc(OCc6ccccn6)ccc5c4)c3c2)n[nH]1 [CC004, 5-[5-(2,2-Dimethyl-propyl)-1H-[1,2,4]triazol-3-yl]-3-[6-(pyridine-2-ylmethoxy)-naphthalen-2-yl]-1H-indazole]
- Inhibitory activity (% of control), Blk(m) [1]: 43 % of control
- Inhibitory activity (% of control), Fes(h) [2]: 70 % of control
- Inhibitory activity (% of control), PAK2(h) [3]: 62 % of control
- Inhibitory activity (% of control), PRAK(h) [4]: 24 % of control
- Inhibitory activity (% of control), PRK2(h) [5]: 3 % of control
- Inhibitory activity (% of control), ROCK-II(h) [6]: 5 % of control

Compound: CCN1CCC[C@H]1COc1ccc2cc(-c3n[nH]c4ccc(-c5nc(CC(C)(C)C)n[nH]5)cc34)ccc2c1 [CC005, 2-[((2s)-1-ethylpyrrolidin-2-yl)methoxy]-6-{5-[3-(2,2-Dimethylpropyl)(1H-1,2,4,-triazol-5-yl)](1H-indazol-3-yl)}naphthalene]
- Inhibitory activity (% of control), Blk(m) [1]: 4 % of control
- Inhibitory activity (% of control), Fes(h) [2]: 8 % of control
- Inhibitory activity (% of control), PAK2(h) [3]: 13 % of control
- Inhibitory activity (% of control), PRAK(h) [4]: 10 % of control
- Inhibitory activity (% of control), PRK2(h) [5]: 1 % of control
- Inhibitory activity (% of control), ROCK-II(h) [6]: 2 % of control

Compound: Fc1ccc(-c2n[nH]c3ccc(-c4n[nH]c(C5CCCC5)n4)cc23)cc1 [CC006, 5-(5-Cyclopentyl-1H-[1,2,4]triazol-3-yl)-3-(4-fluoro-phenyl)-1H-indazole, reference compound]
- Inhibitory activity (% of control), Blk(m) [1]: 60 % of control
- Inhibitory activity (% of control), Fes(h) [2]: 70 % of control
- Inhibitory activity (% of control), PAK2(h) [3]: 56 % of control
- Inhibitory activity (% of control), PRAK(h) [4]: 12 % of control
- Inhibitory activity (% of control), PRK2(h) [5]: 24 % of control
- Inhibitory activity (% of control), ROCK-II(h) [6]: 13 % of control

Compound: O=C(NC1CCCC1)c1cccc(-c2n[nH]c3ccc(-c4nc[nH]n4)cc23)c1 [CC007, 3-(5-(1H-1,2,4-triazol-3-yl)(1H-indazol-3-yl))phenyl-N-cyclopentylcarboxamide, reference compound]
- Inhibitory activity (% of control), Blk(m) [1]: 76 % of control
- Inhibitory activity (% of control), Fes(h) [2]: 41 % of control
- Inhibitory activity (% of control), PAK2(h) [3]: 86 % of control
- Inhibitory activity (% of control), PRAK(h) [4]: 0 % of control
- Inhibitory activity (% of control), PRK2(h) [5]: 68 % of control
- Inhibitory activity (% of control), ROCK-II(h) [6]: 69 % of control

Reference: patent US20050107386A1, “Methods of treating diseases and disorders by targeting multiple kinases” (priority 2003, published 2005)
